Read-outs that look alike come from different tables or passages of the source.
Tests used:
primary AML specimens = test: Dose-response assays in primary AML specimens (6 days, CellTiterGlo); type: cell-based, human; settings: Homo sapiens, 144 h, read-out: median IC50 in a panel of 40 primary AMLs, 6 days
Experimental: Freshly thawed primary AML specimens were used for chemical screens. Cryopreserved cells were thawed at 37 °C in IMDM containing 20% FBS and DNase I (100 μg/mL). Cells were resuspended in IMDM supplemented with 15% BIT (BSA, insulin, transferrin; StemCell Technologies), 100 ng/mL SCF, 50 ng/mL FLT3L, 20 ng/mL IL3, 20 ng/mL G-CSF, 10^−4 mol/L b-mercaptoethanol, gentamicin (50 μg/mL), ciprofloxacin (10 μg/mL), SR1 (500 nmol/L) and UM729 (500 nmol/L). Cells were plated in 384-well white plates, 5000 cells per well in 50 μL. Compounds were dissolved in DMSO, diluted in media immediately before use and added to seeded cells at the unique concentration of 1 μM. Control wells received DMSO (0.1%) only. Cell viability was evaluated after 6 days in culture using the CellTiterGlo assay according to the manufacturer’s instruction. Percentage of inhibition for dose response curves was calculated as 100 – (100 × (mean luminescence [compound]/mean luminescence [DMSO])). Dose response curves were generated using nonlinear regression in GraphPad Prism version.
Dose-response assays in primary AML specimens were performed as in chemical screen (see above) with the exception that compounds were tested in serial dilution (8 dilutions, 1:4, 10 μM down to 0.5 nM). Dose-response assays in OCI-AML5 cell line were conducted similarly with the following modifications: 300 cells per well were seeded in 50 μL of cell line media and cell viability was evaluated after 4 days in culture.

OCI-AML5 cells = test: Dose-response proliferative assay in OCI-AML5 (4 days, CellTiterGlo); type: cell-based, H. sapiens; settings: for IC50: Homo sapiens
Summary of the method: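 Viability assessed after 4 days of compound exposure at 37 °C, 5% CO2. Compounds tested as 8 dilutions (1:4, 10 μM to 0.5 nM) on 300 OCI-AML5 cells/well grown in αMEM with 10% heat-inactivated FBS and 10 ng/mL GM-CSF.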

cyclin KeGFP = test: Cyclin KeGFP reporter system (eGFP/mCherry MFI by flow cytometry);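 note: 10 μM compound for 3 h relative to DMSO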; type: cell-based, H. sapiens; settings: cyclin K-eGFP reporter
Summary of the method: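 Degradation read as eGFP-to-mCherry MFI ratio relative to DMSO controls, from flow cytometry of the selected G7 clone of OCI-AML5 cells transduced with the cyclin KeGFP reporter.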

CDK1 = biological target: T1, CDK1 (Homo sapiens, UniProt P06493); test: CDK1 in vitro kinase activity, single concentration 1 μM; type: biochemical; settings: single concentration 1 μM
T1 construct: purchased BPS Bioscience 79597
T1 sequence (P06493 whole entry): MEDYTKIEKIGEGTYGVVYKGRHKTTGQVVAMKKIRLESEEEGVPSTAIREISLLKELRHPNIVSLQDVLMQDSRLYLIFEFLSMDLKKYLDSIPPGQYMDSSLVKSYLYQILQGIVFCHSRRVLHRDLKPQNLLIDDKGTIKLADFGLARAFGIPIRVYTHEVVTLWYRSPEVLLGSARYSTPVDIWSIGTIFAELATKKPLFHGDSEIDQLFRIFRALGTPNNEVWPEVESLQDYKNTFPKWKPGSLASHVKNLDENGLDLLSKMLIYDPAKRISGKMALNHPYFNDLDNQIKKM
T1 sequence (P14635 whole entry partner): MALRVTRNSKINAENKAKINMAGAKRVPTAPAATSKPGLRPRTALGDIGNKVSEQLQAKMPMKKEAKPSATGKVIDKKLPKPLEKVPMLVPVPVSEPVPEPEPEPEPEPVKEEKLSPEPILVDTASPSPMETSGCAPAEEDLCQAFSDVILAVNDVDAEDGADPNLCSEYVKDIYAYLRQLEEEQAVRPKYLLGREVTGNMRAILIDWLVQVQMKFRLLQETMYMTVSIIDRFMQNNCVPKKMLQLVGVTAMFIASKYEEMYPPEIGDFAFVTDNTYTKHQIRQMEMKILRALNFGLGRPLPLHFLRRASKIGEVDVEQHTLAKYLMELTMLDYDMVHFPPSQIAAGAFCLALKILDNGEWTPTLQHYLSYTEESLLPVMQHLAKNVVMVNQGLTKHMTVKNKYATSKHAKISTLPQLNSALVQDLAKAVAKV
Experimental: (§1) Kinase activity was assessed using the kinase assay kits from BPS Bioscience for CDK1, CDK9 and CDK12 with Kinase Glo MAX in duplicates. Compounds were tested at a single concentration of 1 μM for CDK1 and CDK9 activity, and in a dilution ranging from 0.64 nM to 50 μM for CDK12 activity. Chemiluminescence was read using the Neo Synergy BioTek plate reader.

CDK9/CyclinT = biological target: T2, CDK9/CyclinT (Homo sapiens, UniProt P50750); test: CDK9/CyclinT in vitro kinase activity, single concentration 1 μM; type: biochemical; settings: single concentration 1 μM
T2 construct: purchased BPS Bioscience 79628
T2 sequence (P50750 whole entry): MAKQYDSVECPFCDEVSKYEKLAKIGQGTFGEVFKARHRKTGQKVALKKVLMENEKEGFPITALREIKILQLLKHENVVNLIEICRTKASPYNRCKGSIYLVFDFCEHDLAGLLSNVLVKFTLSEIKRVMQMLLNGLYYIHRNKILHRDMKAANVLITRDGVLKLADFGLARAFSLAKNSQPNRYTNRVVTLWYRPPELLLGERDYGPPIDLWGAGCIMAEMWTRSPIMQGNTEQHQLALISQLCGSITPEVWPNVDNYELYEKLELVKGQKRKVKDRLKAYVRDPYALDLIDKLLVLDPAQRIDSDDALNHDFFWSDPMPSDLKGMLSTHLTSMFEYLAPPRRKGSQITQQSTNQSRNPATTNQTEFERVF
T2 sequence (O60563 whole entry partner): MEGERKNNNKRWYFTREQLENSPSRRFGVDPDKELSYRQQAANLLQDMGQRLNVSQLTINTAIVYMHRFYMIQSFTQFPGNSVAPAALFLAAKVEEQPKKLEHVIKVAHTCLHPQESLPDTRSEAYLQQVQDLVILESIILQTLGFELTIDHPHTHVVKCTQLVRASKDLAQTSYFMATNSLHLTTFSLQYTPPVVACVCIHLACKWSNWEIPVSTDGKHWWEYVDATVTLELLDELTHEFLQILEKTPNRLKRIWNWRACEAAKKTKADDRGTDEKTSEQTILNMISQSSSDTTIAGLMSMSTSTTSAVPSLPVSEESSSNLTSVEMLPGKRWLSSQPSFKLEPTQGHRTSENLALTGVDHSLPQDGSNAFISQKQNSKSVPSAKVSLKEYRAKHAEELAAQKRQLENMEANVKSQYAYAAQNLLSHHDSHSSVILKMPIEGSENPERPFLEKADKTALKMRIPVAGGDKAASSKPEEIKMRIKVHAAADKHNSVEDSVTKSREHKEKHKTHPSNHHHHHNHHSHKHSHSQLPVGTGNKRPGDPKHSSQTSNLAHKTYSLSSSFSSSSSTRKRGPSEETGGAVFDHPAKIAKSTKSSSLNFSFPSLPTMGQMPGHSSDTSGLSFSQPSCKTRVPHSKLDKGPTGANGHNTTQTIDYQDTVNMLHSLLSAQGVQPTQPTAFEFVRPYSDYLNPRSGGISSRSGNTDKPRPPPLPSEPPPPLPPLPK
Experimental: as §1

[1] = test system: OCI-AML5 cells expressing shRNAs targeting CDK1, 2, 4, 7, 9, cyclin K; test: Dose response in OCI-AML5 expressing shRNAs targeting CDK1, 2, 4, 7, 9, cyclin K or control; type: cell-based, H. sapiens; settings: for IC50: Homo sapiens; for Class: class from shRNA IC50 profile and cyclin K-eGFP degradation
[2] = test system: OCI-AML5 cells expressing shRNA targeting CUL4A or CUL4B; test: Dose response in OCI-AML5 expressing shRNAs targeting CUL4A, CUL4B or control; type: cell-based, H. sapiens; settings: ratio of IC50 in shCUL4A vs shCTRL OCI-AML5 cells
[3] = test system: OCI-AML5 and U937 cell lines; test: Synergistic interaction assay with THZ531 (Bliss score); type: cell-based
Text: 3. It may be worthwhile to investigate whether the CDK12/13 inhibitor THZ531 could synergize with S656 or analogues like UOM-005636 that specifically degrade Cyclin K, in combination cytotoxicity assays, assessing selective suppression of AML viability over normal cells. Both […]
inhibiting CDK12, and S656 / UOM-005636 by degrading Cyclin K. Similar synergistic effects were observed by Katharina et al., where THZ531 promoted prostate ca ncer cell sensitivity to androgen deprivation therapy [Frei, K et. al. Inhibition of the Cyclin K-CDK12 complex induces DNA damage and increases the effect of androgen deprivation therapy in prostate cancer. Int J […]
Indeed, THZ531 is a covalent CDK12/13 inhibitor that specifically binds to the kinase pocket of […]
pocket of CDK12, and that pre-incubation with THZ531 competes with S656-mediated Cyclin K degradation (see Figure 5E).
We performed a synergistic interaction assay between THZ531 and S656 or UOM-005636 in OCI-AML5 and U937 cell lines (see below). […]
interactions between THZ531 and our cyclin K degrader molecules. This is likely due to both drugs competing for the same binding site, rather than acting through complementary pathways. […]

[4] = biological target: T3, OCI-AML5 total protein extracts (cyclin K, CDKs, DDB1) (Homo sapiens, UniProt P21439); test: Pull-down with immobilized probes and quantitative mass spectrometry; type: binding, H. sapiens; settings: protein ABCB4 (P21439)
T3 construct: endogenous in cells; host or cells: OCI-AML5 total protein extract
T3 sequence (P21439 whole entry): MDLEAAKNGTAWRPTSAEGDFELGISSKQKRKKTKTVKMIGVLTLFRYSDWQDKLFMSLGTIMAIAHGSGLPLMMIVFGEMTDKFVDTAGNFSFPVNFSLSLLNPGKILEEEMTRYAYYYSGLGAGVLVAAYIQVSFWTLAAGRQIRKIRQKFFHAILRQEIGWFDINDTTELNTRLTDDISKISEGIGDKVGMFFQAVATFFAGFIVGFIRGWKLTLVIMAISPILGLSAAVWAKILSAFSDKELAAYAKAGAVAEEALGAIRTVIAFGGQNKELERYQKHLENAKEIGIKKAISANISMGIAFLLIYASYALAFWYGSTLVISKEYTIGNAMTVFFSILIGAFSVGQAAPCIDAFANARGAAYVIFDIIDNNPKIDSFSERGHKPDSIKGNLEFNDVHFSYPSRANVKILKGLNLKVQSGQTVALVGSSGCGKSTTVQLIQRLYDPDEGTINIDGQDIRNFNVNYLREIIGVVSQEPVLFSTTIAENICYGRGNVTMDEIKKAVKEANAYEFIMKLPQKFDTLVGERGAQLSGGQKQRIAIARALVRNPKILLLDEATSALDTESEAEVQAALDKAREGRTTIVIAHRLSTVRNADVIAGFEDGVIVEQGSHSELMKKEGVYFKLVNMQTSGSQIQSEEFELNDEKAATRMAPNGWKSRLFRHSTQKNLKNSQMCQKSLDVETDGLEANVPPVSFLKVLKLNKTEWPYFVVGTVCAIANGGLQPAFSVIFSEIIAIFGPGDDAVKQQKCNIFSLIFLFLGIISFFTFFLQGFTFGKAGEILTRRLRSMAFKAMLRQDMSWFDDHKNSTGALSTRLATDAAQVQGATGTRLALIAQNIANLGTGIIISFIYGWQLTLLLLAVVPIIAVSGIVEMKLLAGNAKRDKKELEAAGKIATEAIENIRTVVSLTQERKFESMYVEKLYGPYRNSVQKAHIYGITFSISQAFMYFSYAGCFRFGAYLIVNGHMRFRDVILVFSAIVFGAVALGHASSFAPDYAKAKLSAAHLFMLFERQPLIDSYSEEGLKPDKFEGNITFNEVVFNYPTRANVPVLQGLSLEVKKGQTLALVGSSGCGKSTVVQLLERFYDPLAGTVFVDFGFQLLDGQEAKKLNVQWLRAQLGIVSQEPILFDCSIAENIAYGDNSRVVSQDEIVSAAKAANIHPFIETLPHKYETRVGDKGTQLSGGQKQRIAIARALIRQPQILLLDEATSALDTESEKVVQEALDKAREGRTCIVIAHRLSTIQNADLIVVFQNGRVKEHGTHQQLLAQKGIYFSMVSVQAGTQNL
Experimental: (§2) Probe compounds were immobilized through their terminal amine on NHS-sepharose beads as previously described (Médard et al, [2015]). The prepared beads were then washed in PBS and equilibrated in Triton X-100 buffer. For each replicate, 1–2 mg of total proteins (2 mg/ml) were incubated end-over-end with 25 μl of beads overnight at 4 °C in low protein binding microtubes (Sarstedt). The samples were then washed twice in Triton X-100 buffer, transferred to new microtubes and further washed six times in PBS including another microtube transfer at the last wash. Beads pellets were resuspended in 50 mM ammonium bicarbonate and subjected to reduction, alkylation and tryptic digest as described above. Peptides were separated on an home-made reversed-phase column (150-μm i.d. by 200 mm) with a 56-min gradient from 10 to 30% ACN-0.2% FA and a 600-nl/min flow rate on a Easy nLC-1200 connected to a Exploris 480 (ThermoFisher Scientific, San Jose, CA). Each full MS spectrum acquired at a resolution of 120,000 was followed by tandem-MS (MS-MS) spectra acquisition on the most abundant multiply charged precursor ions for 3 s. Tandem-MS experiments were performed using higher energy collision dissociation (HCD) at a collision energy of 34%. The data were processed using PEAKS X Pro (Bioinformatics Solutions, Waterloo, ON) and a Uniprot human database (20366 entries). Mass tolerances on precursor and fragment ions were 10 ppm and 0.01 Da, respectively. Fixed modification was carbamidomethyl (C). Variable selected posttranslational modifications were acetylation (N-ter), oxidation (M), deamidation (NQ), phosphorylation (STY). The data were visualized with Scaffold 5.0 (protein threshold, 99%, with at least 2 peptides identified and a false-discovery rate [FDR] of 1% for peptides).
(§3) Differential Enrichment analysis of Proteomics data (DEP) package (Zhang et al, [2018]) in R was used to analyze the data (excluding proteins identified based on a single peptide), including data filtering, normalization, imputation of missing values and statistical testing of differentially expressed proteins.

[5] = biological target: T4, OCI-AML5 total protein extracts (cyclin K, CDKs, DDB1) (Homo sapiens, UniProt P45844); test: as above; type: binding, H. sapiens; settings: protein ABCG1 (P45844)
T4 construct: endogenous in cells; host or cells: OCI-AML5 total protein extract
Experimental: as §2, §3

[6] = biological target: T5, OCI-AML5 total protein extracts (cyclin K, CDKs, DDB1) (Homo sapiens, UniProt Q6UXT9); test: as above; type: binding, H. sapiens; settings: protein ABHD15 (Q6UXT9)
T5 construct: endogenous in cells; host or cells: OCI-AML5 total protein extract
T5 sequence (Q6UXT9 24-468): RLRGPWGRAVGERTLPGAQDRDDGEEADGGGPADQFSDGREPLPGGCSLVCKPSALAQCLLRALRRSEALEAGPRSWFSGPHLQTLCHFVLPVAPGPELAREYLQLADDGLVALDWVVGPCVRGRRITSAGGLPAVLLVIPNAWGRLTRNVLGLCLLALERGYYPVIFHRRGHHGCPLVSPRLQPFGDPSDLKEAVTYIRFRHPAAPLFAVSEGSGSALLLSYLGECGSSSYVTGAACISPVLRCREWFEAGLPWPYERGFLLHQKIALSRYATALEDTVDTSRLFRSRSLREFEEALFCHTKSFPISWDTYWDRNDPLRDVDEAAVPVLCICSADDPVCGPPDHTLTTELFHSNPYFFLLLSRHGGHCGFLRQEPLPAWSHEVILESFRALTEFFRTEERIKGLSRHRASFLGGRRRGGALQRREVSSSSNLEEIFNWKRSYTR
Experimental: as §2, §3

[7] = biological target: T6, OCI-AML5 total protein extracts (cyclin K, CDKs, DDB1) (Homo sapiens, UniProt Q86UQ4); test: as above; type: binding, H. sapiens; settings: protein ABCA13 (Q86UQ4)
T6 construct: endogenous in cells; host or cells: OCI-AML5 total protein extract
Experimental: as §2, §3

[8] = biological target: T7, OCI-AML5 total protein extracts (cyclin K, CDKs, DDB1) (Homo sapiens, UniProt Q96IU4); test: as above; type: binding, H. sapiens; settings: protein ABHD14B (Q96IU4)
T7 construct: endogenous in cells; host or cells: OCI-AML5 total protein extract
T7 sequence (Q96IU4 1-210): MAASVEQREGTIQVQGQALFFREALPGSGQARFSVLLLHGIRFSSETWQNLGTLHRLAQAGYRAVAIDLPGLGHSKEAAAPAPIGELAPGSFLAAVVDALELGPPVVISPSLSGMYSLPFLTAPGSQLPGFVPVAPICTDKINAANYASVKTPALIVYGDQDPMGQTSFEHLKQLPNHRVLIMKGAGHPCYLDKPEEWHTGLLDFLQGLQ
Experimental: as §2, §3

[9] = OCI-AML-5, 96 h, 4 days incubation, read-out: IC50 OCI-AML5
[10] = OCI-AML-5, OCI-AML5 expressing shRNA CCNK (cyclin K), read-out: IC50 shRNA CCNK
[11] = OCI-AML-5, OCI-AML5 expressing shRNA CDK1, read-out: IC50 shRNA CDK1
[12] = OCI-AML-5, OCI-AML5 expressing shRNA CDK2, read-out: IC50 shRNA CDK2
[13] = OCI-AML-5, OCI-AML5 expressing shRNA CDK4, read-out: IC50 shRNA CDK4
[14] = OCI-AML-5, OCI-AML5 expressing shRNA CDK7, read-out: IC50 shRNA CDK7
[15] = OCI-AML-5, OCI-AML5 expressing shRNA CDK9, read-out: IC50 shRNA CDK9
[16] = OCI-AML-5, OCI-AML5 cells, read-out: IC50 in AML5

| inhibition at 1 µM (CDK1) | inhibition at 1 µM (CDK9/CyclinT) | IC50 [1, 10] | IC50 [1, 11] | IC50 [1, 12] | IC50 [1, 13] | IC50 [1, 14] | IC50 [1, 15] | IC50 (OCI-AML5 cells; [16]) | Structure (SMILES) | IC50 (OCI-AML5 cells; [9]) | % degradation cyclin K-eGFP (cyclin KeGFP) | Class [1] | Ratio shCUL4A/shCTRL [2] | also measured |
| --- | --- | --- | --- | --- | --- | --- | --- | --- | --- | --- | --- | --- | --- | --- |
| 69% | 57% | 0.0217 µM | 0.112 µM | 0.142 µM | 0.14 µM | 0.14 µM | 0.101 µM | – | O=C(Cc1ccc(-c2ccccn2)cc1)Nc1ncc(SCc2cccnc2)s1 [UOM-005636] | 0.085 µM | 80% | 1 | 2.3 | IC50 (primary AML specimens): 0.154 µM; times more potent than S656 (OCI-AML5 cells; OCI-AML5 cell line and panel of 40 primary AMLs): 8; class based on cellular selectivity ([1]; IC50 in shRNA OCI-AML5 cells and cyclin KeGFP degradation): Class I (effective cyclin K MGDs (decreased IC50 in cyclin K depleted cells only, and >65% degradation of cyclin KeGFP)); synergistic interaction with THZ531 (Bliss score) [3]: moderate to very low synergistic |
| – | – | – | – | – | – | – | – | – | CN(CCOCCOCCN)c1ccc(CC(=O)Nc2nnc(SCc3cccnc3)s2)cc1 [UOM-005839] | > 10 µM | – | – | – | UOM-005839_centered ([4]; centered abundance): 0.902; UOM-005839_vs_Beads_ratio ([4]; immobilized probe vs beads): -2; UOM-005839_centered ([5]; centered abundance): -1.3; UOM-005839_vs_Beads_ratio ([5]; immobilized probe vs beads): 1.31; UOM-005839_centered ([6]; centered abundance): 0.886; UOM-005839_vs_Beads_ratio ([6]; immobilized probe vs beads): 4.56; UOM-005839_centered ([7]; centered abundance): 0.126; UOM-005839_vs_Beads_ratio ([7]; immobilized probe vs beads): -0.0556; UOM-005839_centered ([8]; centered abundance): 0.505; UOM-005839_vs_Beads_ratio ([8]; immobilized probe vs beads): 3.62 |
| 65% | 50% | 2.94 µM | 0.929 µM | 2.83 µM | 3.72 µM | 2.86 µM | 1.8 µM | 3.4 µM | Cc1ccc(CC(=O)Nc2ncc(SCc3cccnc3)s2)cc1 [UOM-005202] | – | 28% | 2 | 0.7 | – |
| 70% | 90% | 0.0786 µM | 0.154 µM | 0.197 µM | 0.227 µM | 0.221 µM | 0.152 µM | 0.21 µM | CC(=O)Nc1ccc(CC(=O)Nc2ncc(SCc3cccnc3)s2)cc1 [UOM-005473] | – | 67% | mixed 1-2 | 2.59 | – |

— PMC12152147, “DDB1 engagement defines the selectivity of S656 analogs for cyclin K degradation over CDK inhibition” (EMBO Reports, 2025)
